Test results: patent US12448518B2, “Phthalocyanine dye compounds, conjugates and methods of use thereof” (Rakuten Medical, Inc., priority 2020, dated 2025)

Key:
[1] = Singlet oxygen quantum yield, indirect method with chemical quencher (DPBF or ADMA); format: physicochemical; conditions: quencher ADMA, aqueous media, 670 nm LED 5 mW/cm^2, reference AlPcSmix
Source text: Photogeneration quantum yields of singlet oxygen (ΦΔ) were obtained by an indirect method, using either diphenylisobenzofuran (DBPF) or anthracene-9,10-bis-methylmalonate (ADMA) as chemical quenchers in either N,N-dimethylformamide or aqueous media, respectively. Typically, a solution of the phthalocyanine and the quencher was irradiated with a red LED lamp (670 nm) at 5 mW/cm^2. The initial DPBF or ADMA concentrations were kept the same for both the reference and the test samples. The degradation of the DPBF band at 414 nm or ADMA at 401 nm was monitored in a Varian Cary® 50 UV-Vis spectrophotometer, every five seconds in the case of DPBF (up to 30 seconds) and every minute in the case of ADMA (up to five minutes). ZnPc (ΦΔ=0.67) and AlPcSmix (ΦΔ=0.42) were used as references in N,N-dimethylformamide or aqueous media, respectively.
The relative method shown by Eq. (1) was employed for calculations of the ΦΔ:
[formula] where ΦΔ and ΦΔref are the ^1O2 generation quantum yields for the sample and reference, respectively, m and mref are the DPBF or ADMA photobleaching rates in the presence of the phthalocyanine of the invention and the reference, respectively, and I and Iref are the rates of light absorption by the phthalocyanine derivative and reference, respectively. Concentrations of the test compound and reference were chosen such that their respective absorptions at the irradiation wavelength were the same.

[2] = test system: BxPC3 cells; experiment: Cell killing of free dye PIT, CellTox Green Cytotoxicity Assay; format: cell-based; conditions: BxPC3, 0.00137-1 μg/mL, 690 nm laser 64 J/cm^2, 24 hours after light
Description: The PIT killing activity of free dyes were evaluated using the molecules synthesized as Example 12 and Example 13. BxPC3 cells (#CRL-1687, ATCC, Manassas VA) were plated, 5,000 cells per well, in RPMI-1640 media supplemented with 10% FBS and 1% Penicillin/Streptomycin (complete culture media) in a deep-well 96-well plate. Following overnight incubation at 37° C., the culture media were removed and the cells were incubated in 100 μL complete media with 1, 0.333, 0.111, 0.03704, 0.01235, 0.00412, 0.00137, or 0 μg/mL Example 12, Example 13, or IRDye 700DX carboxylate (control) for one hour at 4° C. […]
The effect of different treatment regimens on cell death was measured using the CellTox™ Green Cytotoxicity Assay (Cat No: G8742, Promega, Madison, WI). […] The CellTox™ Green fluorescence signal was measured at 24 hours after light treatment using a fluorescence plate reader. The cells were then lysed with diluted lysis solution (Cat No: G1821, Promega, Madison, WI), incubated at 37° C. for 30 minutes, and the CellTox™ Green fluorescence signal was measured again post-lysis. The percentages of dead cells were calculated by taking the ratio between background (1× CellTox™ Green in complete culture media without cells)-subtracted CellTox™ Green signal per well prior to and post lysis and multiplying the ratio by 100.

[3] = Kinetic (aqueous) solubility in pH 7.4 DPBS, UV quantification; conditions: pH 7.4 DPBS, 4 hours, room temperature (25° C.), from 10 mM DMSO stock
[4] = reference in N,N-dimethylformamide; cited from earlier work

Row | Compound | ΦΔ (singlet oxygen quantum yield) [1] | cell death after illumination (free dye) [2] | Solubility* (kinetic) [3] | ΦΔ of reference [4]
1 | 3-((6-((λ^5-azaneyl)oxy)-6-oxohexyl)(3-(((λ5-azaneyl)oxy)sulfonyl)propyl)(3-(((19-(((3-(bis(3-(((λ5-azaneyl)oxy)sulfonyl)propyl)(3-sulfonatopropyl)ammonio)propyl)dimethylsilyl)oxy)-19H-6,11-(azeno)-17,21-(azeno[3]episoindoloazeno)benzo[7,8][1,3,5,10]tetraaza[2]silacycloundecino[4,3-a:11,1-a′]diisoindol-19-yl)oxy)dimethylsilyl)propyl)ammonio)propane-1-sulfonate [Example 12] | B (>0.5) | dose-dependent cytotoxicity | C (>100 μg/mL) | –
2 | 4-((6-((λ5-azaneyl)oxy)-6-oxohexyl)(4-(((λ5-azaneyl)oxy)sulfonyl)butyl)(3-(((19-(((3-(bis(4-(((λ5-azaneyl)oxy)sulfonyl)butyl)(4-sulfonatobutyl)ammonio)propyl)dimethylsilyl)oxy)-19H-6,11-(azeno)-17,21-(azeno[3]episoindoloazeno)benzo[7,8][1,3,5,10]tetraaza[2]silacycloundecino[4,3-a:11,1-a′]diisoindol-19-yl)oxy)dimethylsilyl)propyl)ammonio)butane-1-sulfonate [Example 13] | B (>0.5) | dose-dependent cytotoxicity | C (>100 μg/mL) | –
3 | [Zn+2].c1ccc2c(c1)-c1nc-2nc2[n-]c(nc3nc([n-]c4nc(n1)-c1ccccc1-4)-c1ccccc1-3)c1ccccc21 [ZnPc] | – | – | – | 0.67
